The values below come from patent US8765767B2, “Positive allosteric modulators of mGluR2” (Bristol-Myers Squibb Company, priority 2012, dated 2014).

The EC50 is the concentration at which the effect is half-maximal. Low values mean higher potency in that assay, high ones lower potency in that assay.

T1 sequence (Q14416 19-872): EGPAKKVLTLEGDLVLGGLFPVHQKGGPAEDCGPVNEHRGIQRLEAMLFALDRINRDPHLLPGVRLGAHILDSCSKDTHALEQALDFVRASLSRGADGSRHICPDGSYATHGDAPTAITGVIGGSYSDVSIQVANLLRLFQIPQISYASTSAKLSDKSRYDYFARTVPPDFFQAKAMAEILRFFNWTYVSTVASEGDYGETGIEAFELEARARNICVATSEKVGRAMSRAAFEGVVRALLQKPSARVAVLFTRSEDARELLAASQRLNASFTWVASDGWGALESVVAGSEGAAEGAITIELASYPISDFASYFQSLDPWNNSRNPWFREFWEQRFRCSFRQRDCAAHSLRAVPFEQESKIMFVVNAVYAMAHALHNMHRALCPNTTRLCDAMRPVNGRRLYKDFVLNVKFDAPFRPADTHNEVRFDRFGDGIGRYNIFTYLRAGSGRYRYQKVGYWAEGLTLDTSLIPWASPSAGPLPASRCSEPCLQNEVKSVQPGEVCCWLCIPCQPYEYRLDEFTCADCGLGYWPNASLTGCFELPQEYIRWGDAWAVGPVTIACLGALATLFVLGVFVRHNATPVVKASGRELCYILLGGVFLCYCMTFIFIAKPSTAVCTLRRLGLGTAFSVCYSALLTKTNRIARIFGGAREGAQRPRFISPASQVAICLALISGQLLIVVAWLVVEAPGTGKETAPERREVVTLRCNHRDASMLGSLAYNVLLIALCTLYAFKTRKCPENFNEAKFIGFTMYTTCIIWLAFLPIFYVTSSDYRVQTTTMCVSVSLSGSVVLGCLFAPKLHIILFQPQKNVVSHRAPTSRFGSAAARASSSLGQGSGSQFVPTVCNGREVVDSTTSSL

One test has as its target T1, human mGluR2 (Homo sapiens, UniProt Q14416).
T1 construct: expressed in transfected cells; host or cells: HEK293 clonal line
In words: mGluR2 cAMP assay (HTRF) in HEK293 cells clonally expressing human mGluR2. The class given is cell-based. The note with it: HEK293 cells expressing human mGluR2, 1 μM forskolin, 1 μM LY-341495, 30 min. The method, then: • Cell Culture. Clonally expressed human mGluR2 in HEK293 background was glutamate starved overnight in media without glutamine (GIBCO MEM 12360), containing 10% FBS, 1% penicillin streptomycin. • cAMP Measurement. On the day of the assay, media was removed, cells washed with PBS, cells harvested and pelleted by centrifugation. Cell pellets were resuspended in stimulation buffer without forskolin and counted. A solution of 1.25×10^6 cells/mL was prepared and dispensed to plates using a Combi liquid handler (Thermo). A standard curve was created using a top concentration of cAMP of 1 μM in the stimulation buffer, 1:3 dilutions over 14 points in the absence of cells. Plates were read by time-resolved fluorescence at […] and a ratio was calculated via in house software, (665 nM/618 nM)*10^4. In house software converted the fluorescence value ratios to units of cAMP concentration, which is then used to calculate % inhibition for each test compound. • MGluR2 cAMP Assay Materials and Methods. Compounds were added to white, standard volume 384 non-binding surface plates (Corning 3574). Cells were resuspended in stimulation buffer consisting of Hanks Balanced Salt Solution (14175-095) pH 7.0, 20 mM HEPES, 2.0 mM CaCl2, 5.0 mM MgCl2, and 1 mM IBMX (Sigma 15879), 1 μM forskolin, and 1 μM LY-341495 for 30 min. Buffer without forskolin was used as a negative control. Solutions of D2 and cryptate detection reagents from the CISBIO dynamic cAMP kit (62AM4PEJ) were diluted 1:40 in lysis buffer. Lysis buffer consisted of 50 mM Phosphate Buffer pH 7.0, 800 mM Potassium Fluoride, 0.2% BSA, and 1.0% Triton. Assay reaction was terminated by addition of detection reagents in lysis buffer. One hour later, plates were read on a PE Viewlux. Data was extracted, and concentration response curves generated by fitting the data to a standard 4 parameter logistic equation from which EC50 values were determined.
(Cyclic AMP is a second messenger, typically raised through Gs and lowered through Gi signalling.)
On to `Clc1c(NCC2CC2c2cccnc2)ccn2c(CC3CC3)nnc12` (stereo not shown) [Example 19, 8-chloro-3-(cyclopropylmethyl)-N-((2-(pyridin-3-yl)cyclopropyl)methyl)-[1,2,4]triazolo[4,3-a]pyridin-7-amine], for which the response was half-maximal at 367 nM (EC50).

In turn, `COc1cccc(F)c1C1CC1CNc1ccn2c(CC(F)(F)F)cnc2c1C#N` (stereo not shown) [Example 27, 7-(((2-(2-Fluoro-6-methoxyphenyl)cyclopropyl)methyl)amino)-3-(2,2,2-trifluoroethyl)imidazo[1,2-a]pyridine-8-carbonitrile] showed a 50% effective concentration (EC50) of 20 nM.

Compound `Fc1ccc([C@@H]2C[C@H]2CNc2ccn3c(CC(F)(F)F)cnc3c2C(F)(F)F)cc1` (stereo in doubt) [Example 32, N-(((1R,2R)-2-(4-Fluorophenyl)cyclopropyl)methyl)-3-(2,2,2-trifluoroethyl)-8-(trifluoromethyl)imidazo[1,2-a]pyridin-7-amine] showed a 50% effective concentration (EC50) of 44 nM. Compared with the last compound, the EC50 is about 2.2-fold higher.

With `COc1c(F)ccc(F)c1[C@H]1C[C@@H]1CNc1ccn2c(CC3CC3)nnc2c1Cl` [Example 10, 8-Chloro-3-(cyclopropylmethyl)-N-(((1S,2S)-2-(3,6-difluoro-2-methoxyphenyl)cyclopropyl)methyl)-[1,2,4]triazolo[4,3-a]pyridin-7-amine], the 50% effective concentration (EC50) came to 6 nM. This EC50 lies about 7.3-fold lower than the previous one.

Regarding `CC(Nc1ccn2c(CC3CC3)nnc2c1Cl)[C@H]1C[C@@H]1c1ccc(F)cc1` (stereo partly drawn) [Example 15, 8-Chloro-3-(cyclopropylmethyl)-N-(1-((1S,2S)-2-(4-fluorophenyl)cyclopropyl)ethyl)-[1,2,4]triazolo[4,3-a]pyridin-7-amine], the EC50 came out at 31 nM. Against the preceding compound, the EC50 is about 5.2-fold higher.

`Clc1c(NC[C@@H]2C[C@H]2c2ccccc2)ccn2c(CC3CC3)nnc12` (relative stereo) [Example 4, Trans-8-chloro-3-(cyclopropylmethyl)-N-((2-phenylcyclopropyl)methyl)-[1,2,4]triazolo[4,3-a]pyridin-7-amine] yielded an EC50 of 5 nM.

The compound `Clc1c(NCC2CC2c2ccncc2)ccn2c(CC3CC3)nnc12` (stereo not shown) [Example 18, 8-Chloro-3-(cyclopropylmethyl)-N-((2-(pyridin-4-yl)cyclopropyl)methyl)-[1,2,4]triazolo[4,3-a]pyridin-7-amine] displayed a 50% effective concentration (EC50) of 244 nM.

Take `COc1cccc([C@H]2C[C@@H]2CNc2ccn3c(CC4CC4)nnc3c2Cl)c1` [Example 8, 8-Chloro-3-(cyclopropylmethyl)-N-(((1S,2S)-2-(3-methoxyphenyl)cyclopropyl)methyl)-[1,2,4]triazolo[4,3-a]pyridin-7-amine]: the response was half-maximal at 12 nM (EC50).

Compound `Fc1ccccc1[C@H]1C[C@@H]1CNc1ccn2c(CC3CC3)nnc2c1Cl` [Example 37, 8-Chloro-3-(cyclopropylmethyl)-N-(((1S,2S)-2-(2-fluorophenyl)cyclopropyl)methyl)-[1,2,4]triazolo[4,3-a]pyridin-7-amine] came in with an EC50 of 4 nM.

In turn, `Clc1c(NC2CCC(c3ccccc3)C2)ccn2c(CC3CC3)nnc12` (stereo not shown) [Example 2, 8-Chloro-3-(cyclopropylmethyl)-N-(3-phenylcyclopentyl)-[1,2,4]triazolo[4,3-a]pyridin-7-amine] displayed an EC50 of 26 nM.

The compound `Fc1ccccc1[C@@H]1C[C@H]1CNc1ccn2c(CC3CC3)nnc2c1Cl` [Example 38, 8-Chloro-3-(cyclopropylmethyl)-N-(((1R,2R)-2-(2-fluorophenyl)cyclopropyl)methyl)-[1,2,4]triazolo[4,3-a]pyridin-7-amine] registered an EC50 of 4 nM.

For `Clc1c(NC[C@@H]2CCC[C@H]2c2ccccc2)ccn2c(CC3CC3)nnc12` (single isomer, unassigned) [Example 46], the 50% effective concentration (EC50) stood at 5 nM.

In turn, `Clc1c(NC[C@H]2C[C@@H]2c2cccc3c2OCC3)ccn2c(CC3CC3)nnc12` [Example 35, 8-Chloro-3-(cyclopropylmethyl)-N-(((1S,2S)-2-(2,3-dihydrobenzofuran-7-yl)cyclopropyl)methyl)-[1,2,4]triazolo[4,3-a]pyridin-7-amine] yielded an EC50 of 3 nM.

In turn, `N#Cc1c(NCC2CC2c2ccccc2OC(F)(F)F)ccn2c(CC(F)(F)F)cnc12` (stereo not shown) [Example 28, 3-(2,2,2-Trifluoroethyl)-7-(((2-(2-(trifluoromethoxy)phenyl)cyclopropyl)methyl)amino)imidazo[1,2-a]pyridine-8-carbonitrile] registered an EC50 of 59 nM.

In the case of `Fc1cnc(C2CC2CNc2ccn3c(CC4CC4)nnc3c2Cl)nc1` (stereo not shown) [Example 12, 8-Chloro-3-(cyclopropylmethyl)-N-((2-(5-fluoropyrimidin-2-yl)cyclopropyl)methyl)-[1,2,4]triazolo[4,3-a]pyridin-7-amine], the EC50 was 83 nM. This EC50 and that of the compound before are within 1.5-fold of each other.

In turn, `FC(F)Oc1ccccc1[C@@H]1C[C@H]1CNc1ccn2c(CC3CC3)nnc2c1Cl` (relative stereo) [Example 7, Trans-8-chloro-3-(cyclopropylmethyl)-N-((2-(2-(difluoromethoxy)phenyl)cyclopropyl)methyl)-[1,2,4]triazolo[4,3-a]pyridin-7-amine] gave an EC50 of 6 nM.

`Fc1ccc(C2(CNc3ccn4c(CC5CC5)nnc4c3Cl)CC2)cc1` [Example 16, 8-chloro-3-(cyclopropylmethyl)-N-((1-(4-fluorophenyl)cyclopropyl)methyl)-[1,2,4]triazolo[4,3-a]pyridin-7-amine]: it took 46 nM to reach a half-maximal effect (EC50).

For `Fc1ccc(C2CC2CNc2ccn3c(CC(F)(F)F)cnc3c2C(F)(F)F)cc1` (stereo not shown) [Example 25, N-((2-(4-Fluorophenyl)cyclopropyl)methyl)-3-(2,2,2-trifluoroethyl)-8-(trifluoromethyl)imidazo[1,2-a]pyridin-7-amine], a half-maximal response (EC50) required 41 nM.

The next test has as its system mGluR2/3.
Assay: not given
The settings on record: rats treated with PCP; cited from earlier work.
For `N[C@@]1(C(=O)O)CC[C@H]2[C@H](C(=O)O)[C@H]21` [LY-354740], the “behavioral effects of PCP (hyper-locomotion, working memory deficits)” value was “reversed the behavioral effects of PCP” and the brain glutamate levels entry is “lowered brain glutamate levels”.

The subject of another test is mGluR2/3.
Assay: not given
The settings on record: GAD patients; cited from earlier work.
For `C[C@H](N)C(=O)N[C@@]1(C(=O)O)CC[C@H]2[C@H](C(=O)O)[C@H]21` [LY-544344], the “therapeutic effect for anxiety” value is on record as “therapeutic effects”.

In the next test the test system is mGluR2/3.
Assay: not given
The note with it: schizophrenia patients; cited from earlier work.
With `CSCC[C@H](N)C(=O)N[C@@]1(C(=O)O)CS(=O)(=O)[C@H]2[C@H](C(=O)O)[C@H]21` [LY-2140023], the “relief of positive and negative symptoms” value was “relief of positive and negative symptoms”.
